US11292781B2, “Pyrimidine tricyclic enone derivatives for inhibition of ROR-gamma and other uses” (REATA PHARMACEUTICALS, INC., priority 2016, dated 2022)

Assays:
[1] = system: IL-17A levels in primary human CD4+ T cells differentiated into Th17 cells; assay: IL-17 release from differentiated primary human T-cells (IL-17A HTRF); format: cell-based; conditions: primary human CD4+ T cells, Th17 differentiation, 46-hour incubation; read-out: hIL17 IC50
Method: C. IL-17 Release from Differentiated Primary Human T-Cells and Cell Viability Primary human cryopreserved CD4+ T Cells (Lonza, donor #0000402103) were plated in Lymphocyte Growth Medium-3 (LGM-3, Lonza) according to the manufacturer's recommendations, and allowed to recover for approximately 3 hours at 37° C. with 5% CO2 in a humidified atmosphere. […] Triplicate wells were plated for each test condition. DMSO (final concentration ≤0.1%) was used as the vehicle. Immediately after plating, CD4+ T cells were activated by adding Dynabeads Human T-Activator CD3/CD28 (Life Technologies; bead-to-cell ratio of 1:2.5) and differentiated into Th17 cells by adding a mixture of the following cytokines: transforming growth factor-β (TGF-β, 5 ng/mL), IL-6 (20 ng/mL), IL-23 (20 ng/mL), and […] (10 ng/mL). Undifferentiated control cells received only cytokine IL-2 (50 ng/mL). All human recombinant cytokines were purchased from R&D Systems. Following a 46-hour incubation at 37° C. with 5% CO2 in a humidified atmosphere, the plates were centrifuged for 3 minutes at 250×g, and half of the supernatant was transferred to a new plate to be used in the IL-17A assay (see below). Cell viability was assessed in the original plate using the CyQuant Direct Assay (Life Technologies). CyQuant values from test compound samples were normalized to those from DMSO-treated samples. The concentration of IL-17A in the supernatant was measured using the Homogeneous Time-Resolved Fluorescence (HTRF) assay (Cisbio Bioassays) according to the manufacturer's protocol. The assay was performed at room temperature in low volume, solid white 384-well plates (Greiner Bio-One). […] A non-linear regression analysis with log (inhibitor) vs. normalized response using a variable slope was applied to fit the data and determine the IC50 values for inhibition of IL-17A levels and cell viability.

[2] = system: Nrf2 transcription factor (GST ARE luciferase reporter in AREc32 cells); assay: AREc32 luciferase reporter assay; format: cell-based, human; conditions: EC2×: concentration required to increase GST ARE luciferase reporter activity by 2-fold, 19 hours
Description: A. AREc32 Luciferase Reporter Assay The AREc32 luciferase reporter assay allows for quantitative assessment of the endogenous activity of the Nrf2 transcription factor in cultured mammalian cells. AREc32 cells are derived from MCF-7 human breast carcinoma cells that were stably transfected with a reporter construct that contains the firefly luciferase gene located downstream of eight copies of the rat GSTA2 antioxidant response element (ARE) sequence (Wang et al., 2006; CXR Biosciences). Active NRF2 binds to the ARE sequences and increases expression of the firefly luciferase gene. […] Luciferase activity was determined using the ONE-Glo Luciferase assay (Promega). The luminescence signal was measured on a BMG Pherastar microplate reader. The mean luminescence value from test compound-treated wells was normalized to that from DMSO-treated wells and was represented as fold-induction. Data were analyzed using GraphPad Prism version 6.00 for Windows, GraphPad Software, La Jolla Calif. USA. A non-linear regression curve with log (agonist) vs. response using a variable slope was used to fit the data. […] EC2× values were interpolated from the curve.

Structure (SMILES) | IC50 [1] [nM] | HRF2 ARE 2× [2] [nM]
C[C@H]1C(=O)C(C#N)=C[C@@]2(C)c3nc(C4CCN(C(=O)OC(C)(C)C)CC4)nc(-c4ccccc4)c3CC[C@H]12 [T44] | 60 | 596
CC1=C2CCc3c(-c4ccccc4F)nc(-c4ccnc5ccccc45)nc3[C@]2(C)C=C(C#N)C1=O [T38] | 374 | >2000
C[C@H]1C(=O)C(C#N)=C[C@@]2(C)c3nc(-c4ccc(CCS(C)(=O)=O)nc4)nc(-c4ccccc4F)c3CC[C@H]12 [T142] | 77 | 217
C[C@H]1C(=O)C(C#N)=C[C@@]2(C)c3nc(-c4ccnc5ccccc45)nc(-c4cccc(F)c4)c3CC[C@H]12 [T39] | 63 | 427
Cc1nc(C)c(-c2nc(-c3ccccc3F)c3c(n2)[C@]2(C)C=C(C#N)C(=O)[C@H](C)[C@H]2CC3)s1 [T70] | 61 | 391
Cc1nc(-c2nc(-c3ccnc4ccccc34)nc3c2CC[C@@H]2[C@@H](C)C(=O)C(C#N)=C[C@@]32C)no1 [T106] | 173 | 139
C[C@H]1C(=O)C(C#N)=C[C@@]2(C)c3nc(-c4cnn5ccccc45)nc(-c4ccccc4F)c3CC[C@H]12 [T67] | 63 | 208
C[C@H]1C(=O)[C@@]2(C#N)O[C@H]2[C@@]2(C)c3nc(-c4ccnc5ccccc45)nc(-c4ccccc4F)c3CC[C@H]12 [T132] | 74 | 437
CCC[C@@]12C=C(C#N)C(=O)C[C@H]1CCc1c(-c3ccccc3F)nc(-c3ccnc(CF)c3)nc12 [T155] | 71 | 267
Cc1noc(C)c1-c1nc(-c2ccnc3ccccc23)nc2c1CC[C@@H]1[C@@H](C)C(=O)C(C#N)=C[C@@]21C [T100] | 178 | 865
CC(C)CC[C@@]12C=C(C#N)C(=O)C[C@H]1CCc1c(-c3ccccc3F)nc(-c3ccnc4ccccc34)nc12 [T164] | 352 | 1059
COc1nc(-c2ccnc3ccccc23)nc2c1CC[C@@H]1[C@@H](C)C(=O)C(C#N)=C[C@@]21C [T9] | 67 | 510
C[C@H]1C(=O)C(C#N)=C[C@@]2(C)c3nc(-c4cccc5ncccc45)nc(-c4ccccc4)c3CCC[C@H]12 [T183] | 70 | 1868
C[C@H]1C(=O)C(C#N)=C[C@@]2(C)c3nc(-c4ccnc5ccccc45)nc(-c4ccc(F)cc4)c3CC[C@H]12 [T40] | 63 | 273
CC(=O)N1CCC(c2nc(-c3ccccc3)c3c(n2)[C@]2(C)C=C(C#N)C(=O)[C@H](C)[C@H]2CC3)CC1 [T46] | 177 | 735
Cc1ccc(-c2nc(-c3ccnc4ccccc34)nc3c2CC[C@@H]2[C@@H](C)C(=O)C(C#N)=C[C@@]32C)o1 [T104] | 86 | 293
C[C@H]1C(=O)C(C#N)=C[C@@]2(C)c3nc(-c4ccnc5ccccc45)nc(-c4ccccc4F)c3CC[C@@H]12 [T176] | 455 | >2000
C[C@H]1C(=O)C(C#N)=C[C@@]2(C)c3nc(-c4ccnc5c4CCC5)nc(-c4ccccc4F)c3CC[C@H]12 [T80] | 58 | 312
C[C@H]1C(=O)C(C#N)=C[C@@]2(C)c3nc(-c4ccnc5ccccc45)nc(N4CCCC4)c3CC[C@H]12 [T138] | 167 | 641
C[C@H]1C(=O)C(C#N)=C[C@@]2(c3ccccc3)c3nc(-c4ccnc5ccccc45)nc(-c4ccccc4F)c3CC[C@H]12 [T148] | 77 | 1758
C[C@H]1C(=O)C(C#N)=C[C@@]2(C)c3nc(-c4ccnc5ccccc45)nc(-c4ccc(C(=O)N(C)Cc5ccccc5)cc4)c3CC[C@H]12 [T101] | 200 | 295
Cc1nc(-c2nc(-c3ccccc3F)c3c(n2)[C@]2(C)C=C(C#N)C(=O)[C@H](C)[C@H]2CC3)no1 [T71] | 198 | 780
C[C@H]1C(=O)C(C#N)=C[C@@]2(C)c3nc(-c4ccnc5ccccc45)nc(-c4ccco4)c3CC[C@H]12 [T102] | 153 | 287
C[C@H]1C(=O)C(C#N)=C[C@@]2(C)c3nc(-c4ccnc5ccccc45)nc(-c4nccs4)c3CC[C@H]12 [T107] | 170 | 284
COC(=O)[C@@]1(C)C(=O)C=C[C@@]2(C)c3nc(-c4ccncc4)nc(OC)c3CC[C@H]12 [T135] | – | >2000
CCC[C@H]1C(=O)C(C#N)=C[C@@]2(C)c3nc(-c4ccnc5ccccc45)nc(-c4ccccc4F)c3CC[C@H]12 [T158] | – | 315

Continued by falling IC50 [1], values first:

IC50 [1] [nM] | Structure (SMILES) | HRF2 ARE 2× [2] [nM]
50 | C[C@H]1C(=O)C(C#N)=C[C@@]2(C)c3nc(-c4ccnc5ccccc45)nc(-c4cccc(-c5ccccc5)c4)c3CC[C@H]12 [T162] | 601
49 | C[C@H]1C(=O)C(C#N)=C[C@@]2(C)c3nc(-c4ncnc5ccccc45)nc(-c4ccccc4F)c3CC[C@H]12 [T74] | 507
40 | C[C@H]1C(=O)C(C#N)=C[C@@]2(C)c3nc(C4CCCCC4)nc(-c4ccccc4)c3CC[C@H]12 [T23] | 144
39 | C[C@H]1C(=O)C(C#N)=C[C@@]2(C)c3nc(-c4cccc5cccnc45)nc(-c4ccccc4F)c3CC[C@H]12 [T62] | 401
38 | C[C@H]1C(=O)C(C#N)=C[C@@]2(C)c3nc(C4=CCCN(C(=O)OC(C)(C)C)C4)nc(-c4ccccc4)c3CC[C@H]12 [T47] | 622
37 | C[C@H]1C(=O)C(C#N)=C[C@@]2(C)c3nc(-c4ccnc5c(F)cc(F)cc45)nc(-c4ccccc4F)c3CC[C@H]12 [T90] | 301
37 | Cc1cc(-c2nc(OC3CCC3)c3c(n2)[C@]2(C)C=C(C#N)C(=O)[C@H](C)[C@H]2CC3)c2ccccc2n1 [T110] | 317
36 | CC1(C)C(=O)C(C#N)=C[C@@]2(C)c3nc(-c4ccnc5c(F)cccc45)nc(-c4ccccc4F)c3CC[C@H]12 [T127] | 343
35 | C[C@H]1C(=O)C(C#N)=C[C@@]2(C)c3nc(-c4ccnc5cc(F)ccc45)nc(-c4ccccc4F)c3CC[C@H]12 [T76] | 315
34 | C[C@H]1C(=O)C(C#N)=C[C@@]2(C)c3nc(-c4cnc5ccccc5c4)nc(-c4ccccc4F)c3CC[C@H]12 [T59] | 311
33 | C[C@H]1C(=O)C(C#N)=C[C@@]2(C)c3nc(-c4cccc5cnccc45)nc(-c4ccccc4F)c3CC[C@H]12 [T86] | 276
31 | Cc1cccc2c(-c3nc(-c4ccccc4F)c4c(n3)[C@]3(C)C=C(C#N)C(=O)[C@H](C)[C@H]3CC4)ccnc12 [T68] | 253
31 | C[C@H]1C(=O)C(C#N)=C[C@@]2(C)c3nc(-c4ccnc(C(F)(F)F)c4)nc(-c4ccccc4F)c3CC[C@H]12 [T54] | 483
27 | CC1(C)C(=O)C(C#N)=C[C@@]2(C)c3nc(-c4ccnc(C5CC5)c4)nc(-c4ccccc4F)c3CC[C@H]12 [T125] | 549
21 | Cc1cc(-c2nc(-c3cccc(F)c3)c3c(n2)[C@]2(C)C=C(C#N)C(=O)[C@H](C)[C@H]2CC3)c2ccccc2n1 [T108] | 225
20 | CC(C)c1cc(-c2nc(-c3ccccc3F)c3c(n2)[C@]2(C)C=C(C#N)C(=O)[C@H](C)[C@H]2CC3)c2ccccc2n1 [T123] | 371
14 | CC1(C)C(=O)C(C#N)=C[C@@]2(C)c3nc(-c4cccc5ncccc45)nc(-c4ccccc4F)c3CC[C@H]12 [T149] | 330
9 | CCC[C@@]1(C)C(=O)C(C#N)=C[C@@]2(C)c3nc(-c4ccnc(C5CC5)c4)nc(-c4ccccc4F)c3CC[C@H]12 [T137] | 274
